Data as given in paper PMC8176454, “Synthesis and Assessment of Novel Probes for Imaging Tau Pathology in Transgenic Mouse and Rat Models” (ACS Chemical Neuroscience, 2021).
Entries after “also recorded” stand apart in the source; their conditions may differ.

What was measured:
[1] = target: T1, 4R tau151-391 aggregates in brainstem sections from SHR72 rats (Homo sapiens, UniProt P10636); test: Binding to SHR72 transgenic rat brain sections; conditions: 50 μM, colocalization with AT8
T1 construct: tissue AXON Neuroscience; host or cells: brain (brainstem) sections of SHR72 transgenic rats
Text: (§1) Since future PET studies for development of these compounds would require kinetic modeling for their assessment in vivo, we tested their performance in tau transgenic rats. Rat brains and blood volumes are about 6- and 10-fold larger, respectively, than those of mice and thus enable higher resolution imaging and ample volume for repeated blood sampling. We used two transgenic rat lines expressing human-truncated tau comprising the proline-rich region and either three microtubule binding domains (3R tau151-391, SH24)[28] or four microtubule binding domains (4R tau151-391, SHR72).[29] […] However, compared to the SHR24 rat brain sections, there were less inclusions detected, which seems to indicate the compounds have preferential binding toward the three repeat forms of tau in these rat models.
Fresh frozen rat brain coronal sections (10 μm) were stored on slides at −80 °C until use. Sections were fixed in ice cold acetone for 10 min and air-dried and then rehydrated twice for 5 min with buffer (10 mM PBS with 0.1% Triton X-100) before application of 5% bovine serum albumin for 1 h and two more 5 min buffer washes. […] The green autofluorescence of PBB3 and LM229 was visualized using a 488 nm filter and fluorescence of AT8 using a 568 nm filter on a Leica DM6000 microscope.

[2] = target: tau (AT8) in AD frontal cortex sections (Homo sapiens, UniProt P10636); test: Staining of post-mortem AD frontal cortex sections, tau
Procedure: (§2) To further validate LM229 as a potential radiotracer for translational research, we investigated its binding to tau aggregates in human globus pallidus/putamen from progressive supranuclear palsy (PSP) subjects (Figure 7) and its selectivity for tau over β-amyloid pathology in AD frontal cortex sections (Figure 8).
In slices from frontal cortex of AD brains, LM229 gave rise to strong signal (Figure 8A), which colocalized with AT8 immunofluorescence (Figure 8B). […]
(§3) buffer) for 1 h at room temperature. Following 3 washes in PBS/0.1% Triton X-100, 50 µM LM229 (diluted in 1:1 blocking buffer/ethanol) was then added for 1 h at room temperature. Nuclei were stained with DAPI (0.1mg/ml for 10 min), washed and tissues mounted in FluorSaveTM prior to analysis using fluorescence […]
(§4) Binding affinity of all compounds with tau fibrils
Microscale Thermophoresis was first used to screen whether there were interaction between the compounds and tau fibrils. For this procedure 200 µL, 5 µM tau fibrils were mixed with 200 µL, 10 µM NT647-NHS dye and then incubated in dark for 30 minutes. Further dialysis (18 hours, changing the buffer after the first 4 hours) was used to remove the free dye giving a 2.5 µM solution of label led protein. […] With each compound, two concentrations (1µM and 1nM) were used to mix with 100nM tau fibrils and then loaded to the MST instrument to read out the MST data curve. […]

[3] = target: T2, tau aggregates in brain of P301S tau mice (Homo sapiens, UniProt P10636, P618S); test: Ex vivo mouse study: i.v. injection, brain sections imaged after 1 h; type: in vivo
T2 construct: from tissue; host or cells: brain of transgenic P301S tau mice (C57Bl/6 background)
Procedure: We next looked at the ability of LM229 to cross the blood–brain barrier (BBB), a key property of any viable neuro-radiotracer. LM229 was injected intravenously (i.v.) (1 mg/kg weight), and after 1 h, WT and P301S tau mice were perfused-fixed and brain sections were imaged under a fluorescence microscope. […] However, we await a comparison of PBB3 and LM229 by PET imaging to determine their relativity properties as in vivo imaging probes.
Mice were injected intravenously (i.v.) with 50 μM LM229 or PBB3 (DMSO) diluted in 50:50 ethanol/PBS. Animals were then perfused (4% PFA) 1 h post-i.v.

[4] = target: T3, 3R tau151-391 aggregates in cortical sections from SHR24 rats (Homo sapiens, UniProt P10636); test: Binding to SHR24 transgenic rat brain sections; conditions: 50 μM, colocalization with AT8
T3 construct: tissue AXON Neuroscience; host or cells: brain (cortex) sections of SHR24 transgenic rats
Text: as §1
(§5) Fresh frozen rat brain coronal sections (10 μm) were stored on slides at −80 °C until use. Sections were fixed in ice cold acetone for 10 min and air-dried and then rehydrated twice for 5 min with buffer (10 mM PBS with 0.1% Triton X-100) before application of 5% bovine serum albumin for 1 h and two more 5 min buffer washes. Primary monoclonal antibody AT8 (Thermo MN1020, 1:1000) was added overnight at 4 °C, followed by 1 h incubation with a mixture of secondary AlexaFluor555 goat anti-mouse antibody (1:1000) and 50 μM PBB3 or LM229 in 50:50 ethanol/buffer. Following two 5 min washes in buffer, the slides were air-dried and cover-slipped using Fluorsave before analysis. The green autofluorescence of PBB3 and LM229 was visualized using a 488 nm filter and fluorescence of AT8 using a 568 nm filter on a Leica DM6000 microscope.

[5] = test system: 3R tau151-391 aggregates in cortical sections from SHR24 rats; test: Binding to SHR24 transgenic rat brain sections; conditions: SHR24 (3R) vs SHR72 (4R) brain tissue
Text: as §1, §5

[6] = target: β-amyloid in AD frontal cortex sections (Homo sapiens, UniProt P05067); test: Staining of post-mortem AD frontal cortex sections, β-amyloid
Text: as §2, with “8). […] In slices from frontal cortex of AD brains, LM229 gave rise to strong signal (Figure 8A), which colocalized with AT8 immunofluorescence (Figure 8B).” for “8).”

[7] = target: tau aggregates in human globus pallidus/putamen from PSP subjects (Homo sapiens, UniProt P10636); test: Staining of post-mortem PSP brain tissue; conditions: colocalized with AT8
Procedure: as §2, with “8). […]” for “8).”
as §3, §4
Microscale Thermophoresis was first used to screen whether there were interaction between the compounds and tau fibrils. […] With each compound, two concentrations (1µM and 1nM) were used to mix with 100nM tau fibrils and then loaded to the MST instrument to read out the MST data curve. […]
DRG were incubated with the indicated concentrations of LM229 or PBB3 for 20 minutes at room temperature, washed 3 times in PBS, and imaged on a Leica DMI 4000B microscope using a Leica DFC3000 G camera and the Leica application suite 4.0.0.11706. Fluorescence intensity was measured in 10-16 neurons each from 3 independent cultures using Image J (imagej.nih.gov/ij/). […]

T2 sequence (P10636 1-383 isoform P10636-6 P243S): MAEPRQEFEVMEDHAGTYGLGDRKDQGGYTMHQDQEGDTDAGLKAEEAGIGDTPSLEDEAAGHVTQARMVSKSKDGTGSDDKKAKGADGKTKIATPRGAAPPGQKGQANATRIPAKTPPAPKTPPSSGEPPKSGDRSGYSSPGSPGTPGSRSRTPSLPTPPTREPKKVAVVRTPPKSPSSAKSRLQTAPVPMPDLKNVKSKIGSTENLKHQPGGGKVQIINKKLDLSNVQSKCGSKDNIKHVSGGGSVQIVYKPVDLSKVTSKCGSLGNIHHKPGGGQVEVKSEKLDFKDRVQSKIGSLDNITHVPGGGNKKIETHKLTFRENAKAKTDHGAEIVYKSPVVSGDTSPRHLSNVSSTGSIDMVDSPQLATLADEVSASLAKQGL
Chain of tau aggregates in human globus pallidus/putamen from PSP subjects (P10636 561-698 limits assumed): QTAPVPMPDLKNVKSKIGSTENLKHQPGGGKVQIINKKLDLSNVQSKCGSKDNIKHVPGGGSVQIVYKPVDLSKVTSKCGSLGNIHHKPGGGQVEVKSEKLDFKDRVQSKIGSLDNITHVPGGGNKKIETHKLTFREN
T3 sequence (P10636 151-360 isoform P10636-5): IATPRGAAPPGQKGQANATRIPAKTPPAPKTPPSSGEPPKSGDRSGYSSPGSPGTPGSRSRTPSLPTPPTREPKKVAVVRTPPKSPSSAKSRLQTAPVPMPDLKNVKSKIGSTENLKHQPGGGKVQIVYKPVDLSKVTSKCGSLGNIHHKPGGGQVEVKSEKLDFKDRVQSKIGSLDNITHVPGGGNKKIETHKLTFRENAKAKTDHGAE
Chain of tau (AT8) in AD frontal cortex sections (P10636 623-708 limits assumed): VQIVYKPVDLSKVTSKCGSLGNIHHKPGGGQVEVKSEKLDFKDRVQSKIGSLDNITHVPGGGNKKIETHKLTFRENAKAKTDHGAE
T1 sequence (P10636 468-708): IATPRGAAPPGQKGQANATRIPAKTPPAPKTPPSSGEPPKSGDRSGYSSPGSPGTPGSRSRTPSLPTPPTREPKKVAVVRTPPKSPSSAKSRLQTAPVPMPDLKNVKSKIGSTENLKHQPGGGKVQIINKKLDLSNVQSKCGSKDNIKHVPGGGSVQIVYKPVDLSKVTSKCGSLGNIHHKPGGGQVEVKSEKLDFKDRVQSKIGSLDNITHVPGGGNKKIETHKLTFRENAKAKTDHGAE
Chain of β-amyloid in AD frontal cortex sections (P05067 672-711 limits assumed): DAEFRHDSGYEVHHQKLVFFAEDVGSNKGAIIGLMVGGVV

With `CNc1ccc(/C=C/C=C/c2nc3cc(F)c(O)cc3s2)cn1` [LM229] as the molecule, how does the “Binding to tau in SHR72 rat brain sections” value [1] read?
The value was “bound to tau in brain sections from SHR72 rats”.

What about the “Signal on AD frontal cortex slices colocalized with AT8” value [2] of the same molecule?
Its value is “strong signal”.

And the “Blood–brain barrier crossing” value ([3]; i.v. 1 mg/kg, 1 h, fluorescence microscopy)?
Its value is “crosses the BBB”.

What about the “Ex vivo binding in P301S tau brain tissue” value ([3]; i.v. injection 1 h prior, colocalization with AT8) of the same molecule?
Its value is “less non-specific binding and more specific binding to tau aggregates; also recorded: significant specific binding to tau aggregates”.

What about the “Binding to pathological aggregated tau in SHR24 rat brain sections” value [4] of the same molecule?
The value was “bound with similar properties to pathological aggregated tau”.

And the “Preference between 3R and 4R tau inclusions in rat models” value [5]?
The value was “preferential binding toward the 3R tau inclusions”.

What about the “Fluorescence intensity colocalized with Aβ relative to tau” value [6] of the same molecule?
The value was “lower”.

What about the “Signal on PSP sections” value [7] of the same molecule?
Its value is “intense signal”.
